Test results taken from US5912259A, “Method for treating and preventing neurodegenerative disorders by administering a thiazolidinone” (Warner-Lambert Company, priority 1998, dated 1999).
Where two headings read alike, the source gives them in different places.

Key:
NMDA-induced injury = settings: for percent protection against NMDA-induced injury: 15 minutes and 2.25 hours after NMDA
Procedure: Intrastriatal injections of NMDA (15 nmol/0.5 μL) were performed in male and female Sprague-Dawley rat pups (Charles River Laboratory, Portage, Mich.) on Postnatal Day (PND) 7. The animals were anesthetized with ether, and the calvarium was exposed by a midline incision through the skin. The rat pups were placed in a plaster of paris mold that was secured to a small animal stereotaxic instrument (Kopf Instruments). NMDA (Sigma) was dissolved in 0.1 M phosphate-buffered saline (PBS) adjusted to pH 7.4 with 1 N NaOH. Injections of NMDA ([…]) were placed in the middle of the right posterior corpus striatum (coordinates relative to Bregma; AP -2.0 mm, ML 2.5 mm, at a depth of 4.0 mm from the dura) with a 26-gauge Hamilton syringe. The syringe was left in place for 2 minutes following the injections to limit leakage. Temperature of the animals was kept constant after surgery in a thermostatically controlled environment (HovaBator chick incubator; BFG Corp., Savannah, Ga.) set at 35° C. to 36° C. for 1 hour after the last drug or vehicle injection. Drug solutions were prepared in PBS and injected intraperitoneally (0.05 mL volume) 15 minutes, and 2.25 hours after intrastriatal injection of NMDA. Control animals received equal volumes of PBS.
After surgery, all animals were returned to the mothers for 5 days, and decapitated on PND 12. The brains were removed, the cerebral hemispheres were separated, and wet weights of each hemisphere were determined individually. Differences of the hemispheric weights were compared for each animal using the formula: 100×(C-I/C)=percent damage, a value that indicates the severity of damage of the injected (I) cerebral hemisphere relative to that of the uninjected contralateral (C) hemisphere. Percent protection is used to indicate the relative protection of the neuroprotective compound compared to the control and was calculated as: 100×[1-(% damagetreated /% damagecontrol)]. Data were expressed as mean percent damage±S.E.M. in all groups. Independent t-tests were used for statistical comparisons.

iNOS, BV-2 microglia = assay: iNOS expression in LPS-activated BV-2 microglia (Western blot); assay type: cell-based
Procedure: BV-2 microglia were grown in 6-well tissue culture plates in DMEM/F12 media supplemented with 10% fetal calf serum. Prior to activation, cells were given fresh media containing various amounts of thiazolidinone. One hour after drug treatment, microglia were activated with lipopolysaccharide (LPS, 4 μg/mL) and placed in an incubator at 37° C. in an atmosphere containing 5% CO2. After 16 hours, cultures were evaluated for inducible nitric oxide synthase (iNOS) activity and expression. iNOS activity was determined using the Griess reaction. Cell-free culture media was mixed with an equal volume of Griess reagent (one volume of 1.0% sulfanilamide in 5% phosphoric acid mixed with one volume of 0.1% naphthylenediamine dihydrochloride in water) and incubated for 5 minutes at room temperature. Absorbance was measured at 560 nm and the concentration within a sample was determined using sodium nitrite as standard. iNOS expression was evaluated by extracting cellular protein and performing Western blot analysis using a monoclonal antibody specific for iNOS.

cortical neurons = assay: Hypoxia/hypoglycemia-induced death of cortical neurons (LDH); assay type: cell-based, fetal Sprague-Dawley rat
Text: Cerebral ischemia can be modeled in vitro by lowering oxygen and glucose in the media of cortical neurons. For this study, cortical neurons were isolated from fetal Sprague-Dawley rat brains on Day E18. Cortical hemispheres were sectioned, dissociated, and triturated in Hank's Balanced Salt Solution (HBSS) containing 0.1% trypsin. Cell concentration was adjusted to 620,000 cells/mL by the addition of Dulbecoo's Modified Eagles Medium (DME) and Ham's Nutrient mixture F-12 (F12) 1:1 supplemented with heat-inactivated 10% horse serum and 6% fetal calf serum. A 100 μL aliquot of cell suspension was pipetted into each individual well of a 96-well polyethylenimine-coated culture plate. After 4 days in an incubator at 37° C. in an atmosphere of 8% CO2,100 μL medium was drawn off from each well and replaced with 100 μL of DME/F12 with 10% horse serum to which 30 μg/mL 5-fluoro-2-deoxyuridine and 70 μg/mL uridine were added to prevent further division of the glial cells. Cultures were read every 2 to 3 days thereafter by half volume (100 μL) replacement with DME/F12 (10% horse serum).
Cells were exposed to an hypoxic/hypoglycemic environment (91% N2 /[…] /1% O2, 1 mM glucose, 37° C.) for varying times in 50 μL HBSS. Cultures were then returned to the normoxic incubator (21% O2 /8% CO2,25 mM glucose) and quantitative assessment of cell death made 24 hours later by measurement of the intracellular enzyme lactate dehydrogenase (LDH). Cells were exposed for 1 hour to the thiazolidinone or other drugs prior to the induction of hypoxia/hypoglycemia.

E-selectin = assay: Cell-surface expression of E-selectin; assay type: cell-based
[1] = test system: canine leptomeningeal smooth muscle cells; assay: Amyloid β-peptide-induced cytotoxicity in canine leptomeningeal smooth muscle cells; assay type: cell-based, dog
Text: Canine smooth muscle cells were isolated from freshly obtained old dog meninges. […] Old dogs have an angiopathy resembling the human condition. Smooth muscle cells are the site of cerebral vessel myopathy occurring in the Dutch form of Alzheimer's disease. The compromise of these cells ultimately leads to a cerebrovascular accident and the death of some humans.
Cells from the meninges were dissociated and kept in culture in 10% fetal calf serum and Dulbecco's minimal essential media with antibiotics for about 1 week on tissue culture plates before use in biochemical studies or transferal to uncoated microscope slides for morphological studies. These smooth muscle cells represent brain blood vessel cells and they can be passaged several times. For inducing cytotoxicity, the cells were treated, in serum-free media, with 10 to 20 μM of amyloid β-peptide that was 42 amino acids long. This peptide corresponds to the human β-peptide sequence. The peptide was dissolved in water immediately before use. This small amount of protein is believed to approximate the concentration of protein observed in postmortem samples in the brains of people who died with Alzheimer's dementia.
Percentages were determined by counting normal and apoptotic nuclei in three fields with five independent measures in a fluorescence microscope.

[2] = Systemic exposure in rats; settings: rat, in vivo, 10 mg/kg
Procedure: (§1) As noted above, the thiazolidinone is additionally well-suited to treating elderly patients because of its long duration of action and its substantial lack of undesirable side effects. Toxicologic properties of the thiazolidinone were evaluated in single-dose oral and intravenous (IV) studies in mice and rats and multidose oral studies in rats and dogs. The thiazolidinone was tested in dogs and monkeys in escalating-dose oral toxicity to determine the most sensitive nonrodent species. […] The initial 13-week dog study was repeated to evaluate the reproducibility of the perivascular effects. Dose range-finding studies were performed in pregnant rats and rabbits, and genotoxic potential was assessed in vitro and in vivo. […] Based on exposure at the no-effect dose in definitive studies, the rat appears to be the most sensitive species followed by the dog and the monkey, albeit with minor differences in exposure between the species.

[3] = 13-week toxicity study in monkeys; assay type: in vivo, monkey
Procedure: as §1

CC(C)(C)c1cc(/C=C2\SC(N)=NC2=O)cc(C(C)(C)C)c1O [CI-1004, (Z)-5-[[3,5-bis(1,1-dimethylethyl)-4-hydroxyphenyl]methylene]-2-imino-4-thiazolidinone methanesulfonate]
percent protection against NMDA-induced injury (NMDA-induced injury; 2×10 mg/kg i.p., p<0.04): 28.1±9.2%
percent protection against NMDA-induced injury (NMDA-induced injury; 2×30 mg/kg i.p., p<0.001): 49±8.2%
survival to PND 12 (NMDA-induced injury; rat, in vivo, 30 mg/kg): One animal dosed with thiazolidinone (2×30 mg/kg) did not survive to PND 12
iNOS protein expression (iNOS, BV-2 microglia): decrease in protein expression
duration of hypoxia/hypoglycemia before loss of viability (cortical neurons; 1 μM): no effect
duration of hypoxia/hypoglycemia before loss of viability (cortical neurons; 10 μM): significantly increased the duration of hypoxia/hypoglycemia before the cells lost viability
neuronal death after hypoxia/hypoglycemia (cortical neurons; 10 μM, 4 hours of exposure, control approximately 50% killed): no neuronal death
cell-surface expression of E-selectin (E-selectin): blocks
amyloid accumulation over the cells [1]: amyloid accumulation over the cells was reduced
cell death induced by amyloid ([1]; 20-30 μM in 5% DMSO/water v/v): significantly decrease the cell death induced by the amyloid
Cmax and AUC relative to male rats at the same dose [2]: approximately twice those in male rats at the same dose
Cmax ([2]; po): 970 ng/mL
AUC(0-t) at 24 h ([2]; po, male rats): 16500 ng·h/mL
ileo-cecal erosions ([3]; 13-week study, not attributed to drug): Superficial ileo-cecal erosions identified microscopically were observed
NSAID-related changes ([3]; 13 weeks): No typical NSAID-related changes were observed
